Here are results for 1 substance from patent publication US6632429B1, “Methods for treating pervasive development disorders” (priority 1999, dated 2003).

Assay [1] has as its system children diagnosed with Autism. The settings on record: secretin given as diagnostic procedure during upper gastrointestinal endoscopy (Horvath et al. 1998); cited from earlier work.
For assay [2], the system named is children diagnosed as having autism. Kind of assay: Experiment 1: Fecal Chymotrypsin Test after secretin infusion. The class given is in vivo, human (children). The note with it: each of 16 autistic children; approximately one week after first secretin infusion, 1 U/kg IV. On the procedure:
(§1) In this experiment, 16 children diagnosed as having autism were administered the following Fecal Chymotrypsin Test in accordance with an embodiment of the invention. First, approximately 2 grams of stool were collected from each child and placed in a sterile container (although it is to be understood that any quantity of stool may be collected, as 2 grams of stool is not a required amount). Each stool sample was then analyzed using, e.g., an enzymatic photospectrometry analysis as is known by those skilled in the art, to determine the level of fecal chymotrypsin in the stool. Although the enzymatic photospectrophotometry process is preferred, any suitable conventional method may be used for measuring the fecal chymotrypsin levels. The measured chymotrypsin levels of the 16 autistic children are illustrated in FIG. 13.
After determining the chymotrypsin levels of the stools, each of these levels were compared with threshold chymotrypsin levels to determine if the child was likely to benefit from secretin administration. […]
The results of Experiment 1 are illustrated in FIGS. 1-14. For instance, approximately one week after the first secretin infusion, the fecal chymotrypsin level of each of the 16 autistic children was measured again. […]

Assay [3] concerns autistic children with abnormal fecal chymotrypsin levels. Nature of the assay: Experiment 2: fecal chymotrypsin levels during 6 months of secretin administration. The note with it: of 37 children, 6 months post-secretin administration. The format is in vivo, human (children). The protocol: as §1
After determining the chymotrypsin levels of the stools, each of these levels were compared with threshold chymotrypsin levels to determine if the child was likely to benefit from secretin administration. By way of example, with the fecal chymotrypsin tests of the stool samples being performed at 30° C. normal levels of chymotrypsin are deemed to lie above 8.4 U/gram, whereas pathologically abnormal levels are deemed to lie below 4.2 U/gram. In addition, chymotrypsin levels between 8.4 U/gram and 4.2 U/gram are considered equivocal, and further testing of the individual's fecal chymotrypsin levels over a period of time should be performed.
A preferred secretin infusion process includes the initial step of prepping an arm of the candidate child with an IV injection of saline. A test dose of 1 U of Secretin-Ferring is then administered to the child. […]
In this experiment, 37 autistic children with abnormal fecal chymotrypsin levels were administered secretin over the course of 6 months using the secretin infusion process described above. Their fecal chymotrypsin (FC) levels were measured weekly using the fecal chymotrypsin test described above.

Assay [4] relates to children diagnosed as having autism. Kind of assay: Experiment 1: CARS (Childhood Autism Rating Scale) test pre/post secretin. The format is in vivo, human (children). The settings on record: 16 autistic children. On the procedure: Upon determining that a given child was likely to benefit from secretin administration based on the results of the fecal chymotrypsin test, the child was administered a CARS (Childhood Autism Rating Scale) test prior to being scheduled for secretin infusion.
For each of the 16 autistic children tested, a preferred secretin infusion process according to the present invention was performed involving the administering of 1 U/kg of body weight of Secretin-Ferring for a period of nine months at intervals of approximately 6 weeks. In addition, another CARS test was administered to each of the 16 autistic children 3 weeks post secretin administration to determine if their autism had changed post infusion.
A preferred secretin infusion process includes the initial step of prepping an arm of the candidate child with an IV injection of saline. A test dose of 1 U of Secretin-Ferring is then administered to the child. Approximately one minute after infusion, the child is examined for signs of allergic reaction including rash, increased heart rate, and increase of blood pressure. […] Subsequently, each child receives a 1U/kg of body weight infusion of Secretin-Ferring approximately every 6 weeks for 9 months. It is to be understood that any commercially available form of secretin may be used. […]

No end group written: not given here.

As to “secretin (HSDGTFTSELSRLRDSARLQRLLQGLV; ends and bridges not checked; UniProt P63298 33-59, looked up) [gastrointestinal peptide hormone]”, the “symptoms associated with Autism after secretin administration” value in assay [1] is “ameliorating the symptoms”. Besides, in assay [2], the “fecal chymotrypsin level post-secretin administration compared with pre-secretin” value is on record as “increased”. In addition, in assay [3] (pre-secretin 0), the “# Autistic Children w/Equivocal FC levels” value was determined as 2 and the “# Autistic Children w/normal FC levels” value turned out to be 34. The “# Autistic Children w/Abnormal FC levels” value in assay [3] (pre-secretin 37) is 1. Further, the “CARS component scores (all except fear)” value in assay [4] (3 weeks post infusion) was “improvement”. Moreover, in assay [4] (approximately 3 weeks after first secretin administration vs pre-secretin), the “CARS scores, overall change” value is given as “overall decrease”.
